Tests used:
Orai1/STIM1 = target: T1, Orai1/STIM1 (Homo sapiens, UniProt Q96D31); assay: Fluorescence-based assay of store-operated calcium entry in Orai1/STIM1 stable cells; type: cell-based; design: key to Orai1/STIM1 (IC50, μmol): A, IC50 < 0.6 μM; B, IC50 = 0.6-1.2 μM; C, IC50 > 1.2 μM; — no fit; settings: HEK-293 cells stably expressing human STIM1 and Orai1, inhibition of Peak-Basal fluorescence signal after calcium addition; for IC50: read-out: Orai1/STIM1 (IC50, μmol)
T1 construct: c-myc (C); expressed in transfected cells; host or cells: HEK-293 cells stably expressing recombinant human STIM1 and Orai1
Text: (§1) Fluorescence-based assays are used for screening the compounds described herein, such as compounds of Formulas (I), (IA), (II), (IIA), (III), (IIIA), (IV), (IVA), (V), (VA), (VI), (VIA), (VII), (VIIA), (VIII), (VIIIA), (IX), (IXA), (X), (XI), (XIA), (XII), or (XIIA) which modulate intracellular calcium.
A. Fluorescence-Based Assay of Store-Operated Calcium Entry in Orai1/STIM1 Stable Cells.
Cells stably expressing recombinant human STIM1 and Orai1 are generated by transfecting a human Orai1 expression plasmid (pcDNA3.1-Orai1-cmyc) into HEK-293 cells stably overexpressing human STIM1 (Roos et al. 2005 JCB 169(3): 435-445). Colonies of cells stably expressing both STIM1 and Orai1 proteins are selected and then subcloned by limiting dilution. Cells were cultured at 37° C./6% CO2 in complete medium with 10% FBS and appropriate selection markers.
The day prior to performing the assay Orai1/STIM1 stable cells are plated in 50 μL of complete medium at 90-95% confluence in a 384 well plate. Cells are grown at 37° C./6% CO2 overnight. On the day of the assay, 1.5 μM fluo-4-AM (Invitrogen) in complete medium is added to the cells, which are then incubated for 1 hour at RT. Cells are washed once in Ca^2+-free HBSS (Hank's buffered saline solution) and 35 μl of Ca^2+-free HBSS is added to each well. Test compounds are added to wells in a 10 μL Ca^2+-free HBSS solution, prepared at 4.5× the desired final concentration, and incubated for 30 minutes at RT. The initial baseline fluorescence signal is then measured with a FLIPR^384 (Molecular Devices) plate reader. Calcium entry is initiated by adding 5 μl of 10×CaCl2 (10 mM) in HBSS, and changes in cellular fluorescence are measured with the FLIPR^384 plate reader. In each well, the magnitude of the fluorescence signal as a result of calcium entry into the cell is determined by calculating the difference between the peak fluorescence signal measured after calcium addition and the initial baseline fluorescence signal (designated Peak-Basal). IC50 values are typically calculated as the concentration that inhibited 50% of the Peak-Basal signal.

RBL-2H3 cells = assay: Fluorescence-based assay of store-operated calcium entry in RBL-2H3 cells; type: cell-based, rat; settings: Rattus norvegicus, thapsigargin, inhibition of Upslope of fluorescence after calcium addition, read-out: RBL-2H3 (IC50, μmol)
Experimental: as §1
B. Fluorescence-Based Assay of Store-Operated Calcium Entry in RBL-2H3 Cells.
RBL-2H3 cells are obtained from ATCC and maintained in complete medium with 10% FBS at 37° C./6% CO2.
The day prior to performing the assay, RBL-2H3 cells are plated in 50 μL of complete medium in a 384 well plate. Cells are grown at 37° C./6% CO2 overnight and grow to 50-60% confluence by the next day. On the assay day, 1.5 µM Fluo-4-AM dye (Invitrogen) in complete medium is added and incubated for 1 hour at RT. Cells are washed twice in Ca^2+-free HBSS buffer and 35 μL Ca^2+-free HBSS buffer is added to each well. 10 μL of a test compound prepared in a Ca^2+-free HBSS solution at 4.5× of the desired concentration is added to a well and incubated for 5 minutes at RT. 10 μL of thapsigargin prepared in a Ca^2+-free HBSS solution at 5.5× of the desired concentration (5.5 uM) is added to each well and incubated for an additional 25 minutes. The initial baseline fluorescence signal is measured with a FLIPR^384 (Molecular Devices) plate reader. 5 μL of 12× calcium in HBSS (12 mM) is added and changes in cellular fluorescence are measured with the FLIPR^384 plate reader. In each well, the change in the fluorescent signal as a function of time due to calcium entry into the cell is determined by calculating the difference between the fluorescent signal measured 7 seconds after calcium addition and the initial baseline fluorescence signal at time zero (t=0). This parameter is designated Upslope. The IC50 value is calculated as the concentration at which 50% of the Upslope is inhibited.

T1 sequence (Q96D31 whole entry): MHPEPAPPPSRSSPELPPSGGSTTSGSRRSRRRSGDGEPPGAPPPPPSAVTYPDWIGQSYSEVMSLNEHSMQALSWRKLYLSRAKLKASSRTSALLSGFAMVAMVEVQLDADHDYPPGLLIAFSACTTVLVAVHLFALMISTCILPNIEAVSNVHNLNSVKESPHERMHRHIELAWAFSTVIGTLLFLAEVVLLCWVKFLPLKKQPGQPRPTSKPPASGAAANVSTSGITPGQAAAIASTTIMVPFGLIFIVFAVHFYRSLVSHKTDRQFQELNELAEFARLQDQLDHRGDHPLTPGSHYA

Row | Structure (SMILES) | IC50 (Orai1/STIM1) [µM] | IC50 (RBL-2H3 cells) [µM] | Orai1/STIM1 (IC50, μmol) (Orai1/STIM1)
1 | Fc1cccc(F)c1CNc1ccc(-c2cc3c(cc2Cl)OC(F)(F)O3)cn1 [Compound 2, 5-(6-chloro-2,2-difluorobenzo[d][1,3]dioxol-5-yl)-N-(2,6-difluorobenzyl)pyridin-2-amine] | 0.6 to 1.2 | < 0.6 | 
2 | Cc1cc2c(cc1-c1ccc(NCc3c(F)cccc3F)nc1)OC(F)(F)O2 [Compound 4, 5-(2,2-difluoro-6-methylbenzo[d][1,3]dioxol-5-yl)-N-(2,6-difluorobenzyl)pyridin-2-amine] | 0.6 to 1.2 | < 0.6 | 
3 | Cc1cc2c(cc1-c1ccc(NCc3c(F)cccc3F)cn1)OC(F)(F)O2 [Compound 6, 6-(2,2-difluoro-6-methylbenzo[d][1,3]dioxol-5-yl)-N-(2,6-difluorobenzyl)pyridin-3-amine] | < 0.6 | < 0.6 | 
4 | Fc1cccc(CNc2ccc(-c3cc4c(cc3Cl)OC(F)(F)O4)cn2)c1Cl [Compound 8, 5-(6-chloro-2,2-difluorobenzo[d][1,3]dioxol-5-yl)-N-(2-chloro-3-fluorobenzyl)pyridin-2-amine] | > 1.2 | < 0.6 | 
5 | FC1(F)Oc2cc(Cl)c(-c3ccc(NCc4ccccc4Cl)nc3)cc2O1 [Compound 10, 5-(6-chloro-2,2-difluorobenzo[d][1,3]dioxol-5-yl)-N-(2-chlorobenzyl)pyridin-2-amine] | > 1.2 | < 0.6 | 
6 | FC1(F)Oc2cc(Cl)c(-c3ccc(NCc4ccccc4C(F)(F)F)nc3)cc2O1 [Compound 12, 5-(6-chloro-2,2-difluorobenzo[d][1,3]dioxol-5-yl)-N-(2-(trifluoromethyl)benzyl)pyridin-2-amine] |  | < 0.6 | —
7 | Fc1ccc(CNc2ccc(-c3cc4c(cc3Cl)OC(F)(F)O4)cn2)c(Cl)c1 [Compound 13] | > 1.2 | < 0.6 | 
8 | COc1ccc(F)cc1CNc1ccc(-c2cc3c(cc2Cl)OC(F)(F)O3)cn1 [Compound 14] |  | < 0.6 | —
9 | COc1ccccc1CNc1ccc(-c2cc3c(cc2Cl)OC(F)(F)O3)cn1 [Compound 15] | > 1.2 | < 0.6 | 
10 | Fc1cccc(CNc2ccc(-c3cc4c(cc3Cl)OC(F)(F)O4)cn2)c1 [Compound 16] | 0.6 to 1.2 | < 0.6 | 
11 | Cc1cc2c(cc1-c1ccc(NCc3c(F)cccc3F)nc1)CCC2 [Compound 17] | 0.6 to 1.2 | < 0.6 | 
12 | Cc1ccc(F)cc1CNc1ccc(-c2cc3c(cc2C)CCC3)cn1 [Compound 18] |  | < 0.6 | —
13 | Cc1ccccc1CNc1ccc(-c2cc3c(cc2C)OC(F)(F)O3)cn1 [Compound 19] | < 0.6 | < 0.6 | 
14 | Cc1cc2c(cc1-c1ccc(NCc3ccccc3Cl)nc1)OC(F)(F)O2 [Compound 20] | > 1.2 | < 0.6 | 
15 | Cc1cc2c(cc1-c1ccc(NCc3ccccc3F)nc1)OC(F)(F)O2 [Compound 21] | < 0.6 | < 0.6 | 
16 | Cc1cc2c(cc1-c1ccc(NCc3c(F)cccc3Cl)nc1)OC(F)(F)O2 [Compound 22] | > 1.2 | < 0.6 | 
17 | Cc1cc2c(cc1-c1cnc(NCc3c(F)cc(F)cc3F)cn1)OC(F)(F)O2 [Compound 23] | 0.6 to 1.2 | < 0.6 | 
18 | Cc1cc2c(cc1-c1ccc(NCc3c(F)cc(F)cc3F)nc1)OC(F)(F)O2 [Compound 24] |  | < 0.6 | 
19 | Cc1cc2c(cc1-c1ccc(NCc3c(F)ccc(F)c3F)nc1)OC(F)(F)O2 [Compound 25] |  | < 0.6 | 
20 | Cc1sc(C(F)(F)F)nc1-c1ccc(NCc2ccccc2F)nc1 [Compound 26] |  | < 0.6 | 
21 | Cc1sc(C(F)(F)F)nc1-c1ccc(NCc2c(F)cc(F)cc2F)nc1 [Compound 27] |  | < 0.6 | 

Row | Structure (SMILES) | IC50 (Orai1/STIM1) [µM] | IC50 (RBL-2H3 cells) [µM] | Orai1/STIM1 (IC50, μmol) (Orai1/STIM1)
22 | Cc1cc2c(cc1-c1cnc(NCc3c(F)cccc3F)nc1)OC(F)(F)O2 [Compound 32, 5-(2,2-difluoro-6-methyl-1,3-benzodioxol-5-yl)-N-[(2,6-difluorophenyl)methyl]pyrimidin-2-amine] |  | < 0.6 | 
23 | Cc1cc2c(cc1-c1ccc(NCc3c(F)cccc3F)nc1)OCCO2 [Compound 37, N-(2,6-difluorobenzyl)-5-(7-methyl-2,3-dihydrobenzo[b][1,4]dioxin-6-yl)pyridin-2-amine] | 0.6 to 1.2 | < 0.6 | 
24 | Fc1cccc(F)c1CNc1ccc(-c2cc3c(cc2Cl)OCCO3)cn1 [Compound 42, 5-(7-chloro-2,3-dihydrobenzo[b][1,4]dioxin-6-yl)-N-(2,6-difluorobenzyl)pyridin-2-amine] | > 1.2 | < 0.6 | 
25 | Fc1cccc(F)c1CNc1ccc(-c2nc3c(cc2Cl)OCCO3)cn1 [Compound 45, 5-(7-chloro-2,3-dihydro-[1,4]dioxino[2,3-b]pyridin-6-yl)-N-(2,6-difluorobenzyl)pyridin-2-amine] |  | < 0.6 | 
26 | Cc1cc(F)ccc1CNc1ccc(-c2nc3c(cc2Cl)OCCO3)cn1 [Compound 46] | 0.6 to 1.2 | < 0.6 | 
27 | Cc1cc2c(cc1-c1cnc(OCc3c(F)cccc3F)nc1)OC(F)(F)O2 [Compound 62] |  | 0.6 to 1.2 | 
28 | Cn1nc(C(F)(F)F)cc1-c1cnc(OCc2c(F)cccc2F)nc1 [Compound 63] |  | > 1.2 | 
29 | Cc1cc2c(cc1-c1ccc(OCc3c(F)cccc3F)nc1)OC(F)(F)O2 [Compound 66] |  | < 0.6 | 
30 | Cn1nc(C(F)(F)F)cc1-c1ccc(OCc2c(F)cccc2F)nc1 [Compound 67] |  | 0.6 to 1.2 | 
31 | Cn1nc(C(F)(F)F)cc1-c1ccc(NCc2c(F)cc(F)cc2F)cn1 [Compound 87] |  | < 0.6 | 
32 | CCn1nc(C(F)(F)F)cc1-c1ccc(NCc2ccccc2F)cn1 [Compound 88] |  | < 0.6 | 
33 | CCn1nc(C(F)(F)F)cc1-c1ccc(NCc2c(F)cccc2F)cn1 [Compound 89] |  | < 0.6 | 
34 | Cn1nc(C(F)(F)F)cc1-c1ncc(NCc2c(F)cccc2F)cc1F [Compound 91] |  | < 0.6 | 
35 | Cn1nc(C(F)(F)F)cc1-c1cnc(NCc2c(F)cccc2F)nc1 [Compound 94, N-(2,6-difluorobenzyl)-5-(1-methyl-3-(trifluoromethyl)-1H-pyrazol-5-yl)pyrimidin-2-amine] |  | < 0.6 | 
36 | Fc1ccc(C(F)(F)F)c(Oc2ccc(NCc3c(F)cccc3F)nc2)c1 [Compound 133, N-(2,6-difluorobenzyl)-5-(5-fluoro-2-(trifluoromethyl)phenoxy)pyridin-2-amine] |  | < 0.6 | 
37 | CCc1ccccc1Oc1ccc(NCc2c(F)cc(F)cc2F)nc1 [Compound 136] |  | > 1.2 | 
38 | CCc1ccccc1Oc1ccc(NCc2c(F)cccc2F)nc1 [Compound 137] |  | > 1.2 | 
39 | Fc1cc(F)c(CNc2ccc(Oc3cc(F)ccc3C(F)(F)F)cn2)c(F)c1 [Compound 138] |  | < 0.6 | 
40 | Fc1ccc(C(F)(F)F)c(Oc2ccc(NCc3c(F)cncc3F)nc2)c1 [Compound 139] |  | < 0.6 | 
41 | Fc1cc(F)c(CNc2ccc(Oc3cc(C(F)(F)F)ccc3C(F)(F)F)cn2)c(F)c1 [Compound 140] |  | 0.6 to 1.2 | 
42 | Fc1cccc(F)c1CNc1ccc(Oc2cc(C(F)(F)F)ccc2C(F)(F)F)cn1 [Compound 141] |  | < 0.6 | 

From patent US10106529B2, “Compounds that modulate intracellular calcium” (CalciMedica, Inc., priority 2011, dated 2018)
